Results published in patent US7785607B2 (priority 2004, dated 2010).
Like-named read-outs stand apart in the source and are kept apart here.

System: IFN-gamma-producing T lymphocytes (PBMC)
Format: cell-based, human
Details: for SFCs/2.5 × 10^5 cells: μg/mL: proteins 2 each, ESAT-6 pool 50, CFP-10 pool 8, both pools 58, PHA 1, PPD 10

phytohemagglutinin [PHA]
Absolute value (spots in control wells subtracted): 237 | response scored positive or negative: positive | SFCs/2.5 × 10^5 cells ([…], mean of duplicate wells): 240 SFCs/2.5 × 10^5 cells | Absolute value (spots in control wells subtracted) (sample 1b latent tuberculosis): 236 | SFCs/2.5 × 10^5 cells (sample 1b latent tuberculosis, mean of duplicate wells): 240 SFCs/2.5 × 10^5 cells | response scored positive or negative (sample 1e anergic subject): negative | Absolute value (spots in control wells subtracted) (sample 1e anergy): 6 | SFCs/2.5 × 10^5 cells (sample 1e anergy): 11 SFCs/2.5 × 10^5 cells | response scored positive or negative (sample 1d healthy control): positive
